Measurements published in publication PMC9720492 (2022).

System: wHTel-26 (DNA, G4) TTAGGGTTAGGGTTAGGGTTAGGGTT
Assay: CD melting
Conditions: 100 mM KCl; 10 mM phosphate, 1 mM EDTA, pH 7.0; 20 µM DNA, D/N 5.0

Tm: 10–13 (±2) °C
Compound: CCN(CC)CCC(=O)Nc1ccc2c(c1)C(=O)c1ccc(NC(=O)CCN(CC)CC)cc1C2=O
